Assay: log P by HPLC
Assay type: physicochemical
Details: EEC directive 79/831 Annex V. A8 by HPLC (gradient method, acetonitrile/0.1% aqueous phosphoric acid)

logP | SMILES
2.77 | Cc1nc2nc(Cl)c(-c3c(F)cccc3Cl)c(NCC(F)(F)F)n2n1 [compound 260]
3.18 | Cc1nc2nc(Cl)c(-c3c(F)cccc3Cl)c(N3CCSCC3)n2n1 [compound 259]
2.42 | C=CCONc1c(-c2ccccc2F)c(Cl)nc2nc(C)nn12 [compound 373]
1.83 | Cc1nc2nc(Cl)c(-c3c(F)cccc3F)c(N3CCC(O)CC3)n2n1 [compound 307]
3.63 | C=C(C)CN(C)c1c(-c2c(F)cccc2Cl)c(Cl)nc2nc(C)nn12 [compound 275]
3.55 | Cc1nc2nc(Cl)c(-c3c(F)cccc3F)c(NC(C)CC(C)C)n2n1 (stereo not drawn) [compound 330]
2.74 | CCN(CCOC)c1c(-c2c(F)cccc2F)c(Cl)nc2nc(C)nn12 [compound 342]
3.74 | Fc1cccc(Cl)c1-c1c(Cl)nc2nc(C3CC3)nn2c1N1CCCCO1 [compound 486]
3.41 | Cc1nc2nc(Cl)c(-c3c(F)cccc3F)c(NOCc3cccc(C(F)(F)F)c3)n2n1 [compound 433]
1.64 | CC(=O)NC1CCN(c2c(-c3c(F)cccc3F)c(Cl)nc3nc(C)nn23)C1 (stereo not drawn) [compound 305]
3.07 | Cc1nc2nc(Cl)c(-c3c(F)cccc3Cl)c(N3CCC(F)CC3)n2n1 [compound 266]
3.5 | CC(C)Nc1c(-c2ccc(F)cc2Cl)c(Cl)nc2nc(C3CC3)nn12 [compound 503]
1.19 | Cc1nc2nc(Cl)c(-c3c(F)cccc3F)c(N3CCC(N)C3)n2n1 (stereo not drawn) [compound 441]
3.11 | Cc1nc2nc(Cl)c(-c3ccc(F)cc3F)c(N3CC=CCC3)n2n1 [compound 283]
4.49 | C=C(C)CN(CC)c1c(-c2c(F)cc(F)cc2F)c(Cl)nc2nc(C3CC3)nn12 [compound 448]
2.78 | COC(=O)C1CCN(c2c(-c3ccc(F)cc3F)c(Cl)nc3nc(C)nn23)CC1 [compound 292]
3.83 | Fc1cccc(Cl)c1-c1c(Cl)nc2nc(C3CC3)nn2c1NC1CCCC1 [compound 479]
4.59 | CCC1=CCN(c2c(-c3ccc(F)cc3F)c(Cl)nc3nc(C4CC4)nn23)CC1 [compound 511]
3.14 | CCOC(=O)CN(CC)c1c(-c2c(F)cccc2Cl)c(Cl)nc2nc(C)nn12 [compound 270]
1.9 | Cc1nc2nc(Cl)c(-c3ccc(F)cc3F)c(N3CCC(O)CC3)n2n1 [compound 282]
2.85 | Fc1ccc(-c2c(Cl)nc3nc(C4CC4)nn3c2N2CCOCC2)c(F)c1 [compound 518]
3 | CCOC(=O)CN(c1c(-c2c(F)cccc2F)c(Cl)nc2nc(C)nn12)C1CC1 [compound 440]
3.56 | Cc1nc2nc(Cl)c(-c3ccc(F)cc3F)c(NC3CCCCC3C(F)(F)F)n2n1 (stereo not drawn) [compound 408]
3.59 | CC(Nc1c(-c2c(F)cccc2Cl)c(Cl)nc2nc(C3CC3)nn12)C(F)(F)F (stereo not drawn) [compound 457]
2.43 | Cc1nc2nc(Cl)c(-c3c(F)cccc3F)c(N(C)CC3OCCO3)n2n1 [compound 332]
3.83 | CCCN(CC1CC1)c1c(-c2c(F)cccc2F)c(Cl)nc2nc(C)nn12 [compound 345]

Same assay, conditions: HPLC

chromatographic logP | SMILES
0.81 | Oc1nc2nc(C(F)(F)F)nn2c(O)c1-c1c(F)cc(F)cc1F [Example 832, 2-trifluoromethyl-6-(2,4,6-trifluoro-phenyl)-[1,2,4]triazolo[1,5-a]pyrimidine-5,7-diol]

Same assay, conditions: HPLC, gradient method, acetonitrile/0.1% aqueous phosphoric acid; EEC directive 79/831 Annex V. A8

logP | SMILES
3.65 | CC(C)CN(N)c1c(-c2c(F)cc(F)cc2F)c(Cl)nc2nc(C3CC3)nn12 [compound 773]
4.25 | CC(C)C(C)Nc1c(-c2ccc(F)cc2Cl)c(Cl)nc2nc(C3CC3)nn12 (racemic) [compound 587]
2.61 | Cc1nc2nc(Cl)c(-c3c(F)cccc3F)c(N3CCCC3)n2n1 [compound 170]
2.98 | CCN(CC)c1c(-c2c(F)cccc2F)c(Cl)nc2nc(C)nn12 [compound 175]
4.19 | CC(C)(C)Nc1c(-c2ccc(F)cc2F)c(Cl)nc2nc(C(F)(F)F)nn12 [compound 535]
4.69 | C=C(C)CN(CC)c1c(-c2c(F)cc(F)cc2F)c(Cl)nc2nc(C(F)(F)F)nn12 [compound 95]
3.06 | CCc1nc2nc(Cl)c(-c3c(F)cc(F)cc3F)c(NCC(F)(F)F)n2n1 [compound 5]
5.12 | CC(Nc1c(-c2ccc(F)cc2F)c(Cl)nc2nc(C(F)(F)F)nn12)C1CCCCC1 (stereo not drawn) [compound 557]
3.6 | CN(C)c1c(-c2c(F)cc(F)cc2F)c(Cl)nc2nc(C(F)(F)F)nn12 [compound 100]
2.44 | CCc1nc2nc(Cl)c(-c3c(F)cc(F)cc3F)c(NC)n2n1 [compound 93]
2.45 | COC(=O)C(C)Nc1c(-c2c(F)cc(F)cc2F)c(Cl)nc2nc(C)nn12 (stereo not drawn) [compound 124]
3.22 | C=C(C)CNc1c(-c2ccc(F)cc2F)c(Cl)nc2nc(C3CC3)nn12 [compound 657]
2.8 | CCc1nc2nc(Cl)c(-c3c(F)cc(F)cc3F)c(N3CCOCC3)n2n1 [compound 92]
1.67 | CN(C)C1CCN(c2c(-c3ccc(F)cc3F)c(Cl)nc3nc(C(F)(F)F)nn23)C1 (stereo not drawn) [compound 795]
2.75 | C#CCN(C)c1c(-c2ccccc2Cl)c(Cl)nc2nc(C)nn12 [compound 237]
3.76 | Fc1ccc(-c2c(Cl)nc3nc(C4CC4)nn3c2NC2CCCC2)c(F)c1 [compound 650]
3.37 | Fc1ccc(-c2c(Cl)nc3nc(C4CC4)nn3c2NCC(F)(F)F)c(Cl)c1 [compound 638]
3.22 | Cc1nc2nc(Cl)c(-c3c(F)cc(F)cc3F)c(N(C)Cc3ccco3)n2n1 [compound 153]
3.48 | Cc1nc2nc(Cl)c(-c3ccccc3Cl)c(N3CCCCC3)n2n1 [compound 233]
4.06 | Cc1nc2nc(Cl)c(-c3ccc(Cl)cc3Cl)c(NC(C)C(C)C)n2n1 (stereo not drawn) [compound 788]
3.84 | CCOC(=O)CN(c1c(-c2ccc(F)cc2F)c(Cl)nc2nc(C3CC3)nn12)C1CC1 [compound 727]
0.75 | Cc1nc2nc(Cl)c(-c3ccccc3Cl)c(N3CC=CCC3)n2n1 [compound 228]
3.9 | C=C(C)CN(CC)c1c(-c2ccccc2Cl)c(Cl)nc2nc(C)nn12 [compound 133]
2.54 | Cc1nc2nc(Cl)c(-c3c(F)cccc3F)c(NOC3CCCCO3)n2n1 (stereo not drawn) [compound 142]
2.71 | Cc1nc2nc(Cl)c(-c3c(F)cc(F)cc3F)c(NC(C)C)n2n1 [compound 26]
2.94 | CCN(CCOC)c1c(-c2ccccc2Cl)c(Cl)nc2nc(C)nn12 [compound 225]
2.89 | CCCCNc1c(-c2c(F)cccc2F)c(Cl)nc2nc(C)nn12 [compound 560]

logP | SMILES
3.11 | COC(=O)C(Nc1c(-c2c(F)cc(F)cc2F)c(Cl)nc2nc(C)nn12)C(C)C (stereo not drawn) [compound 118]
4.72 | CC(C)C(C)Nc1c(-c2ccc(Cl)cc2Cl)c(Cl)nc2nc(C3CC3)nn12 (single isomer, unassigned) [compound 756]
3.23 | Fc1cccc(F)c1-c1c(Cl)nc2nc(C3CC3)nn2c1N1OC2CCC1C2 (stereo not drawn) [compound 743]
3.82 | C=C(C)CNc1c(-c2c(F)cc(F)cc2F)c(Cl)nc2nc(C(F)(F)F)nn12 [compound 22]
1.65 | CCN(CCN(C)C)c1c(-c2ccc(F)cc2F)c(Cl)nc2nc(C3CC3)nn12 [compound 723]
3.07 | COCCNc1c(-c2ccc(F)cc2Cl)c(Cl)nc2nc(C3CC3)nn12 [compound 616]
3.37 | Cc1nc2nc(Cl)c(-c3c(F)cc(F)cc3F)c(NC(C)C(C)C)n2n1 (stereo not drawn) [compound 134]
3.8 | CC(C)Nc1c(-c2c(F)cc(F)cc2F)c(Cl)nc2nc(C(F)(F)F)nn12 [compound 11]
2.2 | OC1CCN(c2c(-c3ccc(F)cc3F)c(Cl)nc3nc(C4CC4)nn23)C1 (stereo not drawn) [compound 603]
4.41 | C=C(C)CN(C)c1c(-c2ccc(F)cc2Cl)c(Cl)nc2nc(C3CC3)nn12 [compound 629]
2.79 | CN(CCC#N)c1c(-c2ccc(F)cc2F)c(Cl)nc2nc(C3CC3)nn12 [compound 718]
3.29 | CCc1nc2nc(Cl)c(-c3c(F)cc(F)cc3F)c(N3CCCC3)n2n1 [compound 72]
4.05 | C=C(C)CN(C)c1c(-c2ccc(F)cc2F)c(Cl)nc2nc(C3CC3)nn12 [compound 670]
2.61 | Cc1nc2nc(Cl)c(-c3c(F)cccc3F)c(N3OCCC3C)n2n1 (stereo not drawn) [compound 578]
2.83 | Cc1nc2nc(Cl)c(-c3c(F)cc(F)cc3F)c(N3CCCCN3)n2n1 [compound 692]
4.47 | Fc1ccc(-c2c(Cl)nc3nc(C(F)(F)F)nn3c2NC2CCCCC2)c(F)c1 [compound 556]
3.83 | C=C(C)CN(CC)c1c(-c2c(F)cc(F)cc2F)c(Cl)nc2nc(C)nn12 [compound 14]
4.72 | CC(C)C(C)Nc1c(-c2ccc(Cl)cc2Cl)c(Cl)nc2nc(C3CC3)nn12 (single isomer, unassigned) [compound 758]
2.77 | Cc1nc2nc(Cl)c(-c3c(F)cccc3Cl)c(NC3CC3)n2n1 [compound 258]
2.95 | Fc1ccc(-c2c(Cl)nc3nc(C4CC4)nn3c2NC2CC2)c(F)c1 [compound 655]
3.82 | CCCNc1c(-c2c(F)cc(F)cc2F)c(Cl)nc2nc(C(F)(F)F)nn12 [compound 106]
2.72 | Fc1cccc(F)c1-c1c(Cl)nc2nc(C3CC3)nn2c1NCC(F)F [compound 763]
4.09 | C=CCN(C)c1c(-c2ccc(F)cc2F)c(Cl)nc2nc(C(F)(F)F)nn12 [compound 541]
3.44 | Cc1nc2nc(Cl)c(-c3c(F)cc(F)cc3F)c(NC(C)C(=O)OC(C)(C)C)n2n1 (stereo not drawn) [compound 126]
4.37 | CC(C)(C)CNc1c(-c2ccc(F)cc2Cl)c(Cl)nc2nc(C3CC3)nn12 [compound 622]
3.55 | CCN(Cc1ccco1)c1c(-c2c(F)cc(F)cc2F)c(Cl)nc2nc(C)nn12 [compound 158]
2.76 | C=C(C)CNc1c(-c2c(F)cc(F)cc2F)c(Cl)nc2nc(C)nn12 [compound 16]

— patent publication US7186831B2, “5-halo-2-alkyl[1,2,4]triazolo[1,5-a]pyrimidin-7-amines” (priority 2001, dated 2007)
